One experiment concerns Rat aortic rings. Briefly: Calcium content of rat aortic rings cultured ex vivo in procalcifying conditions (O-Cresolphthalein colorimetric assay). Format: cell-based. The conditions noted are these: Pi 3.8 mM, 7 days; for Effect on calcium content of rat aortas (in words): procalcifying conditions; for Aortic calcium content: Pi alone = 100%. The method, then: Materials and methods: Rat aortic rings were cultured in procalcifying conditions using inorganic phosphate (Pi: 3.8 mM) for 7 days. […] Rat aortic calcium content was determined using a calcium colorimetric assay with O-Cresolphthalein.
Materials and methods: Rat aortic rings were cultured in procalcifying conditions using inorganic phosphate (Pi: 3.8 mM) for 7 days. N-acetyl-S-farnesyl-L-cysteine (AFC)—sEH phosphatase domain inhibitor—was added at concentrations, ranging from 0.1 to 10 μM (n=4-21 per group). Rat aortic calcium content was determined using a calcium colorimetric assay with O-Cresolphthalein.
Materials and methods: Rat aortic rings were cultured in procalcifying conditions using inorganic phosphate (Pi: 3.8 mM) for 7 days in absence and in presence of ebselen at a concentration of 1 and 10 μM (n=6-8 per group).

Experiment [1] deals with Human valvular interstitial cells (VICs). The experiment in a line: Calcium content of human valvular interstitial cells cultured in procalcifying conditions (O-Cresolphthalein colorimetric assay). It counts as cell-based. Conditions: Pi 3 mM; for VICs calcium content: mean±SEM; for Effect on calcium content of valvular interstitial cells (in words): procalcifying conditions. The method, then: Materials and methods: Human valvular interstitial cells (VICs) were cultured in procalcifying conditions using inorganic phosphate (Pi: 3 mM) for 14 days. N-acetyl-S-farnesyl-L-cysteine (AFC)—sEH phosphatase domain inhibitor—was added at concentrations, ranging from 0.1 to 5 μM (n=5-6 per group). VICs aortic calcium content was determined using a calcium colorimetric assay with O-Cresolphthalein.
Materials and methods: Human valvular interstitial cells (VICs) were cultured in procalcifying conditions using inorganic phosphate (Pi: 3 mM) for 10 days. Ebselen—sEH phosphatase domain inhibitor—was added at the concentrations of 0.1 and 1 μM (n=4 per group). VICs aortic calcium content was determined using a calcium colorimetric assay with O-Cresolphthalein.

Where [2] appears, read: rat aortic rings, compound 1 μM.
Setting [3] is: rat aortic rings, compound 10 μM.

The record followed here is US11382894B2, “Pharmaceutical compositions for use in the treatment of cardiovascular calcification” (INSERM (INSTITUT NATIONAL DE LA SANTE ET DE LA RECHERCHE …, priority 2017, dated 2022).

Each structure is given as a SMILES string.

For the molecule `CC(=O)N[C@@H](CSC/C=C(\C)CC/C=C(\C)CCC=C(C)C)C(=O)O` [AFC, N-acetyl-S-farnesyl-L-cysteine], in the experiment on Rat aortic rings, the “Effect on calcium content of rat aortas (in words)” value is “dose-dependently reduces”. Further, the “Alizarin Red and VonKossa histochemical staining” value in the experiment on Rat aortic rings (rat aortic rings) was “confirmed these results”. The Aortic calcium content with Rat aortic rings (rat aortic rings, compound 0.1 μM) is reported as 83.6±9.1%; in the experiment with Rat aortic rings (setting [2]), 74.2±2.9%; in the experiment on Rat aortic rings (setting [3]), 54.5±12%. In experiment [1] (human VICs, 14 days), the “Alizarin Red staining” value is “confirmed these results”. For the same molecule, the VICs calcium content in experiment [1] (human VICs, 14 days, compound 0.1 μM, Pi alone 90.3±4.6 μg) turned out to be 76.7 ± 5.7 µg; in experiment [1] (human VICs, 14 days, compound 1 μM, Pi alone 90.3±4.6 μg), 51.1 ± 2.9 µg; in experiment [1] (human VICs, 14 days, compound 5 μM, Pi alone 90.3±4.6 μg) it was 45.8 ± 2 µg. Also, in experiment [1] (14 days), the “Effect on calcium content of valvular interstitial cells (in words)” value was “dose-dependently reduces”.

Consider `O=c1c2ccccc2[se]n1-c1ccccc1` [ebselen], for which the “Effect on calcium content of rat aortas (in words)” value in the experiment on Rat aortic rings is “dose-dependently reduces”. The Aortic calcium content was 77±8% with Rat aortic rings (setting [2]) and 62±7% with Rat aortic rings (setting [3]). For the same molecule, the VICs calcium content in experiment [1] (human VICs, 10 days, compound 0.1 μM, Pi alone = 100%) was 88.8±11%; in experiment [1] (human VICs, 10 days, compound 1 μM, Pi alone = 100%), 67.6±7.2%. For the same molecule, the “Effect on calcium content of valvular interstitial cells (in words)” value in experiment [1] (10 days) was “dose-dependently reduces”.
